From PMC3130629 (Free radical biology & medicine, 2011)

Key:
[1] = molecular target: XO; settings: read-out: Ki for XO; pH 8.5; cited from earlier work
[2] = tested on: xanthine oxidase (XO); assay: O2•- formation from reaction of inhibitor with purified XO; type: biochemical; settings: XO 10 mU/ml; allopurinol 50 μM, febuxostat 100 nM; cytochrome c reduction
[3] = cited from earlier work
[4] = tested on: XO bound to BAEC GAGs (endothelial cell-bound XO); assay: Inhibition of endothelial cell-bound XO, uric acid formation; type: cell-based, bovine; settings: for Inhibition of endothelial cell GAG-bound XO (uric acid formation): even at concentrations above those tolerated clinically (e.g. 200 μM)
[5] = tested on: XO bound to BAEC GAGs (endothelial cell-bound XO); assay: Inhibition of endothelial cell-bound XO, extracellular O2•- by EPR with PPH; type: cell-based, bovine; settings: xanthine 100 μM, 37°C
[6] = molecular target: xanthine oxidase (XO), free in solution (Bos taurus, UniProt P80457); assay: Inhibition of XO free in solution, uric acid formation; type: biochemical; settings: soluble and HS6B-XO, 0.96 and […] vs ref 16
[7] = molecular target: HS6B-XO (GAG-immobilized xanthine oxidase) (Bos taurus, UniProt P80457)
[8] = molecular target: GAG-bound XOR; settings: read-out: Ki, GAG-bound XOR; cited from earlier work
[9] = molecular target: soluble XO; settings: read-out: Ki, soluble XO; cited from earlier work

Chain of xanthine oxidase (XO), free in solution (P80457 whole entry): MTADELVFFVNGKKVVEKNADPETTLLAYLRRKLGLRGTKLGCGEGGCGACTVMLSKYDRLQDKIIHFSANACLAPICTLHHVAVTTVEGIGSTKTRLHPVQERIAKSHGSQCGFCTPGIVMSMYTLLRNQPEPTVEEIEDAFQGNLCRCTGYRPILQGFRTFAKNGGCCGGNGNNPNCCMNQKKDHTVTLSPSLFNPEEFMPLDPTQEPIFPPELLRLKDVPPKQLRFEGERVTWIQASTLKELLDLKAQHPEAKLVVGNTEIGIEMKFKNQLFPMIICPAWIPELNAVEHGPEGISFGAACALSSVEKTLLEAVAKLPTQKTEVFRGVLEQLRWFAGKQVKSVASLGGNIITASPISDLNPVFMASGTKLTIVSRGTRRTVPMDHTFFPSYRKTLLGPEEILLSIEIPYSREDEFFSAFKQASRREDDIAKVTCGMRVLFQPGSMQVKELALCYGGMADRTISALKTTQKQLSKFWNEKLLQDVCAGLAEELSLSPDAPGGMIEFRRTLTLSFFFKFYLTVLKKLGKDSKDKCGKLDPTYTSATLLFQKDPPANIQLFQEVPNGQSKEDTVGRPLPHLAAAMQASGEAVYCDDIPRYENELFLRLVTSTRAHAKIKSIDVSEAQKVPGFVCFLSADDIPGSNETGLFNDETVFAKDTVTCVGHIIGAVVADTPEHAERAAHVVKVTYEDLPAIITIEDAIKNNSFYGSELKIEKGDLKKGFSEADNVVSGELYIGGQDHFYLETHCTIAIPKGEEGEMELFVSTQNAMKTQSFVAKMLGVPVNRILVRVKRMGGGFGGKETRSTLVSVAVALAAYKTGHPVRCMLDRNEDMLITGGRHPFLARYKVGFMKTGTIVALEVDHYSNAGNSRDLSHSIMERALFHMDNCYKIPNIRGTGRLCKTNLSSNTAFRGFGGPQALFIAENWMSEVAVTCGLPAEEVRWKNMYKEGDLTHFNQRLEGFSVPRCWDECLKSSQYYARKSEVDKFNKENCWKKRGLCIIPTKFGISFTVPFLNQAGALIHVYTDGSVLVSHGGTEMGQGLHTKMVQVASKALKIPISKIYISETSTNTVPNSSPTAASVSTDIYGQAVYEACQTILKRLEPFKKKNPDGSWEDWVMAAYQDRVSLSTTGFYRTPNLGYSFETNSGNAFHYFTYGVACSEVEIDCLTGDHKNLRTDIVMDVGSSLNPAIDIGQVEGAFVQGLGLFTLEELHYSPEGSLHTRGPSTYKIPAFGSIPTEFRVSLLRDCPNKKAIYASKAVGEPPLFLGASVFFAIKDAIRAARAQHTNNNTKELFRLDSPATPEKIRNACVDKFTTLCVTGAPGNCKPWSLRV
Chain of HS6B-XO (GAG-immobilized xanthine oxidase) (P80457 whole entry): as above

Structure (SMILES) | Ki [1] | O2•- formation on exposure of purified XO to the inhibitor [2] | Concentrations seen clinically [3] | Inhibition of endothelial cell GAG-bound XO (uric acid formation) [4] | Reduction of cell-bound O2•- radical formation (EPR, PP• radical) ([5]; 200 μM) | Ki (pH 7.4) higher than previously reported Ki (pH 8.5) [6] | Cmax ([3]; reported) | Inhibition of uric acid formation from endothelial cell-bound XO ([4]; 25 nM febuxostat, xanthine 100 μM, 1 h) | Reduction of cell-bound O2•- production (EPR, PP• radical) ([5]; 50 nM) | Concentration giving complete inhibition of uric acid and O2•- production from HS6B-XO [7] | Ki [8] | Ki [9]
Oc1ncnc2[nH]ncc12 [allopurinol] | 0.7 µM | significant O2 ^•- formation | 20 to 90 µM | no more than 80% | 80% | – | – | – | – | – | – | –
Cc1nc(-c2ccc(OCC(C)C)c(C#N)c2)sc1C(=O)O [febuxostat] | 0.00012 µM | no detectable O2 ^•- | – | – | – | ~ 8 fold | 15 µM | completely inhibited | 100% | ≤ 50 nM | – | –
O=c1[nH]c(=O)c2c[nH]nc2[nH]1 [oxypurinol] | – | – | 20 to 90 µM | no more than 80% | – | – | – | – | – | – | 0.405 µM | 0.23 µM
